Data reported in ChEMBL document CHEMBL1122784, “Antitumor imidazotetrazines. 1. Synthesis and chemistry of 8-carbamoyl-3-(2-chloroethyl)imidazo[5,1-d]-1,2,3,5-tetrazin-4(3 H)-one , a novel broad-spectrum antitumor agent” (J Med Chem, 1984).

Assays:
[1] = Half-life period in 95% ethanol in dark at 28 degrees celsius.; assay type: ADME
[2] = Half-life period in 95% ethanol in diffuse laboratory light at 28 degrees celsius.; assay type: ADME
Mus musculus [3] = assay: Compound was tested for mortality in L1210 leukemia implanted BDF1 mice on day 0 after ip administration of 10 mg/kg/day on day 1 out of 5 mice; assay type: functional; conditions: route intraperitoneal
Mus musculus [4] = assay: Compound was tested for mortality in L1210 leukemia implanted BDF1 mice on day 0 after ip administration of 10 mg/kg/day on days 1-5 out of 5 mice; assay type: functional; conditions: route intraperitoneal
Mus musculus [5] = assay: Compound was evaluated for %T/C in L1210 leukemia implanted BDF1 mice on day 0 after ip administration of 40 mg/kg/day on day 1; assay type: functional; conditions: route intraperitoneal
Mus musculus [6] = assay: Compound was evaluated for %T/C in L1210 leukemia implanted BDF1 mice on day 0 after ip administration of 6.25 mg/kg/day on day 1-9; assay type: functional; conditions: route intraperitoneal
Mus musculus [7] = assay: Compound was evaluated for %T/C in P388 leukemia implanted BDF1 mice on day 0 after ip administration of 10 mg/kg/day on day 1-5; assay type: functional; conditions: route intraperitoneal
Mus musculus [8] = assay: Compound was evaluated for %T/C in P388 leukemia implanted BDF1 mice on day 0 after ip administration of 20 mg/kg/day on day 1-5; assay type: functional; conditions: route intraperitoneal
Mus musculus [9] = assay: Compound was evaluated for %T/C in P388 leukemia implanted BDF1 mice on day 0 after ip administration of 25 mg/kg/day on day 1-5; assay type: functional; conditions: route intraperitoneal
Mus musculus [10] = assay: Compound was evaluated for %T/C in P388 leukemia implanted BDF1 mice on day 0 after ip administration of 50 mg/kg/day on day 1-5; assay type: functional; conditions: route intraperitoneal
Mus musculus [11] = assay: Compound was evaluated for number of survivors in L1210 leukemia implanted BDF1 mice on day 0 after ip administration of 3.12 mg/kg/day on day 60 out of 6 mice; assay type: functional; conditions: route intraperitoneal
Mus musculus [12] = assay: Compound was evaluated for number of survivors in L1210 leukemia implanted BDF1 mice on day 0 after ip administration of 40 mg/kg/day on day 60 out of 5 mice; assay type: functional; conditions: route intraperitoneal
Mus musculus [13] = assay: Compound was evaluated for number of survivors in L1210 leukemia implanted BDF1 mice on day 0 after ip administration of 6.25 mg/kg/day on day 60 out of 6 mice; assay type: functional; conditions: route intraperitoneal
Mus musculus [14] = assay: Compound was tested for mortality in L1210 leukemia implanted BDF1 mice on day 0 after ip administration of 2.5 mg/kg/day on day 1-5 out of 5 mice; assay type: functional; conditions: route intraperitoneal
Mus musculus [15] = assay: Compound was tested for mortality in L1210 leukemia implanted BDF1 mice on day 0 after ip administration of 20 mg/kg/day on day 1 out of 5 mice; assay type: functional; conditions: route intraperitoneal
Mus musculus [16] = assay: Compound was evaluated for %T/C in L1210 leukemia implanted BDF1 mice on day 0 after ip administration of 3.12 mg/kg/day on day 1-9; assay type: functional; conditions: route intraperitoneal
Mus musculus [17] = assay: Compound was evaluated for %T/C in L1210 leukemia implanted BDF1 mice on day 0 after ip administration of 10 mg/kg/day on day 1; assay type: functional; conditions: route intraperitoneal
Mus musculus [18] = assay: Compound was evaluated for %T/C in L1210 leukemia implanted BDF1 mice on day 0 after ip administration of 12.5 mg/kg/day on day 1-9; assay type: functional; conditions: route intraperitoneal
Mus musculus [19] = assay: Compound was evaluated for %T/C in L1210 leukemia implanted BDF1 mice on day 0 after ip administration of 2.5 mg/kg/day on day 1-5; assay type: functional; conditions: route intraperitoneal
Mus musculus [20] = assay: Compound was tested for mortality in P388 leukemia implanted BDF1 mice on day 0 after ip administration of 20 mg/kg/day on day 1 out of 5 mice; assay type: functional; conditions: route intraperitoneal
Mus musculus [21] = assay: Compound was tested for mortality in P388 leukemia implanted BDF1 mice on day 0 after ip administration of 20 mg/kg/day on day 1-5 out of 5 mice; assay type: functional; conditions: route intraperitoneal
Mus musculus [22] = assay: Compound was tested for mortality in P388 leukemia implanted BDF1 mice on day 0 after ip administration of 40 mg/kg/day on day 1 out of 5 mice; assay type: functional; conditions: route intraperitoneal
Mus musculus [23] = assay: Compound was tested for mortality in P388 leukemia implanted BDF1 mice on day 0 after ip administration of 50 mg/kg/day on day 1-5 out of 6 mice; assay type: functional; conditions: route intraperitoneal
Mus musculus [24] = assay: Compound was tested for mortality in P388 leukemia implanted BDF1 mice on day 0 after ip administration of 5 mg/kg/day on day 1 out of 5 mice; assay type: functional; conditions: route intraperitoneal
Mus musculus [25] = assay: Compound was tested for mortality in P388 leukemia implanted BDF1 mice on day 0 after ip administration of 5 mg/kg/day on day 1-5 out of 5 mice; assay type: functional; conditions: route intraperitoneal
Mus musculus [26] = assay: Compound was tested for mortality in P388 leukemia implanted BDF1 mice on day 0 after ip administration of 6.25 mg/kg/day on day 1-5 out of 6 mice; assay type: functional; conditions: route intraperitoneal
Mus musculus [27] = assay: Compound was tested for mortality in L1210 leukemia implanted BDF1 mice on day 0 after ip administration of 3.12 mg/kg/day on day 1-9 out of 6 mice; assay type: functional; conditions: route intraperitoneal
Mus musculus [28] = assay: Compound was tested for mortality in L1210 leukemia implanted BDF1 mice on day 0 after ip administration of 40 mg/kg/day on day 1 out of 5 mice; assay type: functional; conditions: route intraperitoneal
Mus musculus [29] = assay: Compound was tested for mortality in L1210 leukemia implanted BDF1 mice on day 0 after ip administration of 50 mg/kg/day on day 1-9 out of 6 mice; assay type: functional; conditions: route intraperitoneal
Mus musculus [30] = assay: Compound was tested for mortality in L1210 leukemia implanted BDF1 mice on day 0 after ip administration of 5 mg/kg/day on day 1-5 out of 5 mice; assay type: functional; conditions: route intraperitoneal
Mus musculus [31] = assay: Compound was tested for mortality in L1210 leukemia implanted BDF1 mice on day 0 after ip administration of 6.25 mg/kg/day on day 1-9 out of 6 mice; assay type: functional; conditions: route intraperitoneal
Mus musculus [32] = assay: Compound was evaluated for number of survivors in L1210 leukemia implanted BDF1 mice on day 0 after ip administration of 7.5 mg/kg/day on day 60 out of 5 mice; assay type: functional; conditions: route intraperitoneal
Mus musculus [33] = assay: Compound was evaluated for number of survivors in L1210 leukemia implanted BDF1 mice on day 0 after ip administration of 80 mg/kg/day on day 60 out of 5 mice; assay type: functional; conditions: route intraperitoneal
Mus musculus [34] = assay: Compound was evaluated for number of survivors in P388 leukemia implanted BDF1 mice on day 0 after ip administration of 12.5 mg/kg/day on day 60 out of 6 mice; assay type: functional; conditions: route intraperitoneal
Mus musculus [35] = assay: Compound was evaluated for number of survivors in P388 leukemia implanted BDF1 mice on day 0 after ip administration of 2.5 mg/kg/day on day 60 out of 5 mice; assay type: functional; conditions: route intraperitoneal
Mus musculus [36] = assay: Compound was evaluated for number of survivors in P388 leukemia implanted BDF1 mice on day 0 after ip administration of 25 mg/kg/day on day 60 out of 6 mice; assay type: functional; conditions: route intraperitoneal
Mus musculus [37] = assay: Compound was evaluated for number of survivors in P388 leukemia implanted BDF1 mice on day 0 after ip administration of 50 mg/kg/day on day 60 out of 5 mice; assay type: functional; conditions: route intraperitoneal
Mus musculus [38] = assay: Compound was evaluated for number of survivors in P388 leukemia implanted BDF1 mice on day 0 after ip administration of 7.5 mg/kg/day on day 60 out of 5 mice; assay type: functional; conditions: route intraperitoneal
Mus musculus [39] = assay: Compound was evaluated for number of survivors in P388 leukemia implanted BDF1 mice on day 0 after ip administration of 80 mg/kg/day on day 60 out of 5 mice; assay type: functional; conditions: route intraperitoneal

For `NC(=O)c1ncn2c(=O)n(CCCl)nnc12` [MITOZOLOMIDE], the half-life [1] was 1.2 h, the half-life [2] was 1.17 h and the Mortality (Mus musculus [3]) was 0. It also gave a Mortality (Mus musculus [4]) of 0, a T/C (Mus musculus [5]) greater than 740% and a T/C (Mus musculus [6]) of 184%. The T/C (Mus musculus [7]) was greater than 555%, the T/C (Mus musculus [8]) was greater than 555% and the T/C (Mus musculus [9]) was 387%. For the same compound, the T/C (Mus musculus [10]) was 153%, the Survivors (Mus musculus [11]) was 0 and the Survivors (Mus musculus [12]) was 5. For the same compound, the Survivors (Mus musculus [13]) was 0, the Mortality (Mus musculus [14]) was 0 and the Mortality (Mus musculus [15]) was 0. It also gave a T/C (Mus musculus [16]) of 147%, a T/C (Mus musculus [17]) of 131% and a T/C (Mus musculus [18]) greater than 745%. It also gave a T/C (Mus musculus [19]) of 112%, a Mortality (Mus musculus [20]) of 0 and a Mortality (Mus musculus [21]) of 0. It also gave a Mortality (Mus musculus [22]) of 0, a Mortality (Mus musculus [23]) of 0 and a Mortality (Mus musculus [24]) of 0. The Mortality (Mus musculus [25]) was 0, the Mortality (Mus musculus [26]) was 1 and the Mortality (Mus musculus [27]) was 0. For the same compound, the Mortality (Mus musculus [28]) was 0, the Mortality (Mus musculus [29]) was 0 and the Mortality (Mus musculus [30]) was 0. It also gave a Mortality (Mus musculus [31]) of 0, a Survivors (Mus musculus [32]) of 0 and a Survivors (Mus musculus [33]) of 0. The Survivors (Mus musculus [34]) was 1, the Survivors (Mus musculus [35]) was 0 and the Survivors (Mus musculus [36]) was 4. For the same compound, the Survivors (Mus musculus [37]) was 0, the Survivors (Mus musculus [38]) was 5 and the Survivors (Mus musculus [39]) was 0.
